Experimental data: patent US20080234384A1, “BIARYL AND BIHETEROARYL COMPOUNDS USEFUL IN TREATING IRON DISORDERS” (XENON PHARMACEUTICALS INC., priority 2007, published 2008)
Counter-ions that a name gives are not always drawn.

The compounds below were run against T1, DMT1 (Homo sapiens, UniProt P49281) (assay: DMT1 Activity Assay (In Vitro Assay)). Settings: read-out: IC50 Activity Level.
T1 sequence (P49281 1-568): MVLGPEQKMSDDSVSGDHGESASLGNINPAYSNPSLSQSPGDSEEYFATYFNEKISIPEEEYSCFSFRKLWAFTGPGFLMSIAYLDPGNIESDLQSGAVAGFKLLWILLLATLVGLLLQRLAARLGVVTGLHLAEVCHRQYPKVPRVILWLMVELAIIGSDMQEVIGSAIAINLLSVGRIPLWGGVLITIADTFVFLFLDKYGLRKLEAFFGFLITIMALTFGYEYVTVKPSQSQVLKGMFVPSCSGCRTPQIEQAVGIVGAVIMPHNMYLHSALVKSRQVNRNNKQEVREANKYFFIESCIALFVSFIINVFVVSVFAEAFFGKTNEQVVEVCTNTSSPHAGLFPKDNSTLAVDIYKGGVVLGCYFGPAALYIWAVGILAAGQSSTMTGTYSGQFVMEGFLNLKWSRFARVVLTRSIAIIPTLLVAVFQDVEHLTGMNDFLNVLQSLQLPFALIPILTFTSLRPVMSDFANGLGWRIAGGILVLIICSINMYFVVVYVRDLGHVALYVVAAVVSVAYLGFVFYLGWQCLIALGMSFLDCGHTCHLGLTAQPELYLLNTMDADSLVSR
Type: cell-based
Source text: In particular, identification of the compounds of the invention ability to modulate, preferably to inhibit, DMT1 activity, can be assessed using a variety of in vitro and in vivo assays, for measuring uptake of reduced iron (Fe^2+). One such protocol involves the screening of chemical agents for ability to modulate the activity of DMT1 thereby identifying it as a modulating agent. The in vitro activity of DMT1 can be measured in cell based assays by either directly measuring iron flux (using a radioactively labelled iron ^55Fe) or by measuring the fluorescence of a cell permeable iron fluorophore such as calcein. Stable cell lines overexpressing DMT1 are exposed to ^55Fe or loaded with calcein and then compound is applied. […] Alternatively, in another format electrophysiological techniques can be used to measure the current or iron or other metals traversing the cell membrane with DMT1 in a Xenopus oocyte or other cell based system (Gunshin et al., Nature, 1997, 31; 388(6641):482-8).
This example discloses various in vitro assay for testing and profiling test agents against DMT1 stably expressed in cells of either an endogenous or recombinant origin. These assays can use stable cell lines overexpressing DMT1 or intestinal cells and intestinal tissue expressing endogenous DMT1. DMT1 function could also be assessed in other cell types that express DMT1. Of greatest relevance would be the erythrocytes (e.g. K562 cells) or hepatocytes (e.g. […]).
DMT1 function can be assessed in a number of ways, including monitoring fluorescence changes of an iron fluorophore (e.g. calcein), monitoring uptake of radiolabelled iron (55Fe or ^59Fe) (Picard et al., J. Biol. Chem., 2000, 275(46):35738-45 and Wetli et al., Chem. Biol. 2006 September; 13(9):965-72), or by assessing the current or transport of iron and other metals into the cells or tissues using standard electrophysiological techniques (Gunshin et al., Nature, 1997, 388(6641):482-8.).
Variations of these assays involve alterations of incubation times, the iron status of the cells and tissues (which may be modulated by chemical chelators or by harvesting from iron deficient animals), the metal cation detected and the pH of the reaction can generally be made by conventional techniques known to those skilled in the art.

SMILES	IC50
N=C(N)SCc1ccccc1C(=O)c1ccc(F)cc1CSC(=N)N [Example 2.26, 2-(6-(amidinothiomethyl)phenyl)carbonyl-1-(amidinothiomethyl)-5-fluorobenzene dihydrobromide]	100 to 1000 nM
N=C(N)SCc1ccccc1Oc1ccc(Cl)cc1CSC(=N)N [Example 2.16, 2-[2-({[amino(imino)methyl]thio}methyl)-4-chlorophenoxy]benzyl imidothiocarbamate dihydrobromide]	≥ 1000 nM
N=C(NN)SCc1ccccc1Sc1ccccc1CSC(=N)NN [Example 3, 2-(6-((aminoamidino)thiomethyl)phenyl)thio-1-((aminoamidino)thiomethyl)benzene dihydrobromide]	≥ 1000 nM
N=C(N)SCc1cc(F)ccc1Oc1ccc(F)cc1CSC(=N)N [Example 2.13, 2-[2-(2-carbamimidoylsulfanylmethyl-4-fluorophenoxy)-5-fluorobenzyl]isothiourea dihydrobromide]	100 to 1000 nM
N=C(N)SCc1cc(F)ccc1Sc1cc(F)c(F)cc1CSC(=N)N [Example 1.16, 2-[2-(2-carbamimidoylsulfanylmethyl-4,5-difluorophenylsulfanyl)-5-fluorobenzyl]isothiourea dihydrobromide]	100 to 1000 nM
N=C(N)Cc1ccccc1Sc1ccccc1CC(=N)N [Example 6.1, 2-(6-(amidinomethyl)phenyl)thio-1-(amidinomethyl)benzene]	≥ 1000 nM
N=C(N)SCc1cc(F)ccc1Sc1cscc1CSC(=N)N [Example 2.5, (4-{[2-({[amino(imino)methyl]thio}methyl)-4-fluorophenyl]thio}-3-thienyl)methyl imidothiocarbamate dihydrochloride]	100 to 1000 nM
N=C(N)SCc1cc(Cl)ccc1Oc1ccc([N+](=O)[O-])cc1CSC(=N)N [Example 2.20, 2-[2-({[amino(imino)methyl]thio}methyl)-4-chlorophenoxy]-5-nitrobenzyl imidothiocarbamate dihydrobromide]	≥ 1000 nM
N=C(N)SCc1ccccc1Sc1ccc2ccccc2c1CSC(=N)N [Example 1.13, 2-[2-(1-carbamimidoylsulfanylmethylnaphthalen-2-ylsulfanyl)benzyl]-isothiourea dihydrobromide]	≥ 1000 nM
N=C(N)SCc1ccccc1Sc1ccc(N)cc1CSC(=N)N [Example 1.19, 2-[2-(2-carbamimidoylsulfanylmethylphenylsulfanyl)-5-aminobenzyl]-isothiourea trihydrobromide]	100 to 1000 nM
N=C(N)SCc1ccccc1C(=O)c1ccc(Cl)cc1CSC(=N)N [Example 2.29, 2-(6-(amidinothiomethyl)phenyl)carbonyl-1-(amidinothiomethyl)-5-chlorobenzene dihydrobromide]	≥ 1000 nM
N=C(N)SCc1cc(F)ccc1Oc1ccc(Cl)cc1CSC(=N)N [Example 2.11, 2-[2-(2-carbamimidoylsulfanylmethyl-4-chlorophenoxy)-5-fluorobenzyl]isothiourea dihydrobromide]	100 to 1000 nM
N=C(N)SCc1cc(F)ccc1Oc1cccc(Cl)c1CSC(=N)N [Example 2.10, 2-[2-(2-carbamimidoylsulfanylmethyl-3-chlorophenoxy)-5-fluorobenzyl]isothiourea dihydrobromide]	≥ 1000 nM
N=C(N)SCCc1ccccc1Sc1ccccc1CSC(=N)N [Example 1.25, 2-[2-(2-carbamimidoylsulfanylethylphenylsulfanyl)benzyl]isothiourea dihydrobromide]	≥ 1000 nM
CN(c1ccccc1CSC(=N)N)c1ccccc1CSC(=N)N [Example 1.28, 2,2′-(methylazanediyl)bis(2,1-phenylene)bis-(methylene)dicarbamimidothioate trihydrobromide]	100 to 1000 nM
N=C(N)SCc1ccccc1Oc1ccc(F)cc1CSC(=N)N [Example 2.21, 2-[2-({[amino(imino)methyl]thio}methyl)-4-fluorophenoxy]benzyl imidothiocarbamate dihydrobromide]	100 to 1000 nM

SMILES	IC50
CS(=O)(=O)c1ccc(Sc2ccc(F)cc2CSC(=N)N)c(CSC(=N)N)c1 [Example 1.30, 2-[2-(2-carbamimidoylsulfanylmethyl-4-fluorophenylsulfanyl)-5-(methylsulfonyl)benzyl]isothiourea dihydrobromide]	100 to 1000 nM
N=C(N)SCc1ccccc1C(=O)c1cc(F)ccc1CSC(=N)N [Example 2.27, 2-(6-(amidinothiomethyl)phenyl)carbonyl-1-(amidinothiomethyl)-4-fluorobenzene dihydrobromide]	≥ 1000 nM
N=C(N)SCc1cc(F)ccc1Sc1ccc(C(F)(F)F)cc1CSC(=N)N [Example 1.18, 2-[2-(2-carbamimidoylsulfanylmethyl-4-fluorophenylsulfanyl)-5-(trifluoromethyl)benzyl]isothiourea dihydrobromide]	≥ 1000 nM
CS(=O)(=O)c1ccc(CSC(=N)N)c(Sc2ccc(F)cc2CSC(=N)N)c1 [Example 2.7, 2-{[2-({[amino(imino)methyl]thio}methyl)-4-fluorophenyl]thio}-4-(methylsulfonyl)benzyl imidothiocarbamate dihydrochloride]	≥ 1000 nM
Cc1ccc(CSC(=N)N)c(Sc2ccc(F)cc2CSC(=N)N)c1 [Example 1.5, 2-[2-(2-carbamimidoylsulfanylmethyl-5-methylphenylsulfanyl)-5-fluorobenzyl]isothiourea dihydrobromide]	≥ 1000 nM
N=C(N)SCc1ccccc1Sc1ccccc1CSC(=N)N [Example 1.1, 2-[2-(2-carbamimidoylsulfanylmethylphenylsulfanyl)benzyl]isothiourea dihydrobromide]	100 to 1000 nM
N=C(N)SCc1cc(F)ccc1Sc1c(CSC(=N)N)cccc1[N+](=O)[O-] [Example 1.17, 2-[2-(2-carbamimidoylsulfanylmethyl-4-fluorophenylsulfanyl)-3-nitrobenzyl]isothiourea dihydrobromide]	≥ 1000 nM
N=C(N)SCc1ccccc1C(=O)c1ccccc1CSC(=N)N [Example 2.25, 2-(6-(amidinothiomethyl)phenyl)carbonyl-1-(amidinothiomethyl)benzene dihydrobromide]	100 to 1000 nM
N=C(N)SCc1ccccc1Oc1cc(Cl)ccc1CSC(=N)N [Example 2.18, 2-[2-({[amino(imino)methyl]thio}methyl)-5-chlorophenoxy]benzyl imidothiocarbamate dihydrobromide]	≥ 1000 nM
N=C(N)SCc1cc(F)ccc1Sc1ccc(Cl)cc1CSC(=N)N [Example 1.20, 2-[2-(2-carbamimidoylsulfanylmethyl-4-chlorophenylsulfanyl)-5-fluorobenzyl]isothiourea dihydrobromide]	100 to 1000 nM
N=C(N)SCc1cc([N+](=O)[O-])ccc1Oc1cc(Cl)ccc1CSC(=N)N [Example 2.19, 2-[2-({[amino(imino)methyl]thio}methyl)-5-chlorophenoxy]-5-nitrobenzyl imidothiocarbamate dihydrobromide]	≥ 1000 nM
CNC(=N)SCc1ccccc1Sc1ccccc1CSC(=N)NC [Example 1.29, 2-[2-(2-methylcarbamimidoylsulfanylmethylphenylsulfanyl)benzyl]-methylisothiourea dihydrobromide]	≥ 1000 nM
N=C(N)SCc1ccccc1Sc1ccc(Cl)cc1CSC(=N)N [Example 1.26, 2-[2-(2-carbamimidoylsulfanylmethylphenylsulfanyl)-5-chlorobenzyl]-isothiourea dihydrobromide]	100 to 1000 nM
COc1ccc(Sc2ccccc2CSC(=N)N)c(CSC(=N)N)c1 [Example 1.4, 2-[2-(2-carbamimidoylsulfanylmethyl-4-methoxyphenylsulfanyl)-benzyl]isothiourea dihydrobromide]	≥ 1000 nM
N=C(N)CCCc1ccccc1Sc1ccccc1CCCC(=N)N [Example 6.2, 2-(6-(3-amidinopropyl)phenyl)thio-1-(3-amidinopropyl)benzene]	≥ 1000 nM
